Measured values from ChEMBL document CHEMBL4346726 (Bioorg Med Chem Lett, 2019).

Legend:
[1] = Inhibition of HCV genotype 3a NS3/4a protease by enzymatic assay; parameters: species or system Hepatitis C virus subtype 3a
Hepatitis C virus = test: Antiviral activity against HCV genotype 3a in RLuc cells assessed as reduction in viral replication by luciferase reporter gene assay; format: functional, organism-based, Hepacivirus hominis, subtype 3a
[2] = Volume of distribution at steady state in rat; format: ADME; conditions: in vivo, read-out: Vdss
[3] = Oral bioavailability in rat; format: ADME, organism-based; conditions: in vivo
[4] = Half life in rat; format: ADME; conditions: in vivo
[5] = Lipophilicity, log D of compound; format: physicochemical; conditions: octanol/water
[6] = Clearance in rat; format: ADME; conditions: in vivo
[7] = Drug concentration in rat liver after 6 hrs; format: ADME, tissue-based; conditions: read-out: Drug uptake
Hepacivirus hominis = test: Binding affinity to HCV NS3/4a protease assessed as compound-protein adduct formation per mg protein using radiolabelled compound
[8] = Drug metabolism in human liver microsomes assessed as metabolite formation in presence of glutathione; format: ADME, Microsome
[9] = MRT in rat; format: ADME; conditions: in vivo
[10] = Drug metabolism in human liver microsomes assessed as hydroxylated metabolite formation; format: ADME, Microsome

Row | SMILES | Ki [1] [nM] | EC50 (Hepatitis C virus; Hepatitis C virus, subtype 3a) [nM] | PB (Hepacivirus hominis) [pmol/mg] | also measured
1 | CC[C@@H]1[C@@H]2CN(C(=O)[C@H](C(C)(C)C)NC(=O)O[C@@H]3C[C@H]3CCCCCc3nc4ccc(OC)cc4nc3O2)[C@@H]1C(=O)N[C@]1(C(=O)NS(=O)(=O)C2CC2)C[C@H]1C(F)F | 0.043 | 27 |  | Vd [2]: 1 L/kg; bioavailability [3]: 36%; half-life [4]: 0.8 h; logD [5]: 3.5; clearance [6]: 33.3 mL/min/kg; concentration at 6 h [7]: 1.2 µM
2 | CC[C@@H]1C[C@]1(NC(=O)[C@@H]1C[C@@H]2CN1C(=O)[C@H](C(C)(C)C)NC(=O)OCC(C)(C)CCCCc1cccc3c1CN(C3)C(=O)O2)C(=O)NS(=O)(=O)C1CC1 |  |  | 29 | 
3 | C=C[C@@H]1C[C@]1(NC(=O)[C@@H]1[C@H](C)[C@@H]2CN1C(=O)[C@H](C(C)(C)C)NC(=O)O[C@@H]1C[C@H]1CCCCCc1nc3ccc(OC)cc3nc1O2)C(=O)NS(=O)(=O)C1CC1 | 0.094 | 41 |  | Drug metabolism [8]: Metabolite_Detected
4 | COc1ccc2c(O[C@H]3CCN4C(=O)N(C)CCCC/C=C\[C@@H]5C[C@@]5(C(=O)NS(=O)(=O)C5(C)CC5)NC(=O)[C@@H]4C3)cc(-c3nc(C(F)(F)F)cs3)nc2c1C |  |  | 96 | 
5 | C=C[C@@H]1C[C@]1(NC(=O)[C@@H]1C[C@@H](Oc2ncc(OC)c3ccc(Cl)cc23)CN1C(=O)[C@@H](NC(=O)OC(C)(C)C)C(C)(C)C)C(=O)NS(=O)(=O)C1CC1 |  |  | 114 | 
6 | C=C[C@@H]1C[C@]1(NC(=O)[C@@H]1[C@H](CC)[C@@H]2CN1C(=O)[C@H](C(C)(C)C)NC(=O)O[C@@H]1C[C@H]1CCCCCc1nc3ccc(OC)cc3nc1O2)C(=O)NS(=O)(=O)C1CC1 | 0.081 | 20 | 117 | Vd [2]: 1.9 L/kg; half-life [4]: 2.2 h; logD [5]: 4.1; clearance [6]: 14.7 mL/min/kg; concentration at 6 h [7]: 20.9 µM
7 | COc1ccc2nc3c(nc2c1)O[C@H]1CN(C(=O)[C@H](C(C)(C)C)NC(=O)O[C@@H]2C[C@H]2CCCCC3)[C@H](C(=O)N[C@]2(C(=O)NS(=O)(=O)C3(C)CC3)C[C@H]2C(F)F)[C@@H]1Cc1ccccc1 | 0.87 | 1110 |  | 
8 | Cc1cnc(C(=O)N[C@H]2CCCCC/C=C\[C@@H]3C[C@@]3(C(=O)NS(=O)(=O)C3CC3)NC(=O)[C@@H]3C[C@@H](Oc4nc5ccccc5c5ccccc45)CN3C2=O)cn1 |  |  | 295 | 
9 | CC[C@@H]1C[C@]1(NC(=O)[C@@H]1[C@H](C)[C@@H]2CN1C(=O)[C@H](C(C)(C)C)NC(=O)O[C@@H]1C[C@H]1CCCCCc1nc3ccc(OC)cc3nc1O2)C(=O)NS(=O)(=O)C1CC1 | 0.53 | 188 |  | 
10 | COc1ccc2nc3c(nc2c1)O[C@H]1CN(C(=O)[C@H](C(C)(C)C)NC(=O)O[C@@H]2C[C@H]2CCCCC3)[C@H](C(=O)N[C@]2(C(=O)NS(=O)(=O)C3(C)CC3)C[C@H]2C(F)F)[C@@H]1CC(C)C | 0.63 | 1120 |  | 
11 | CC[C@@H]1[C@@H]2CN(C(=O)[C@H](C(C)(C)C)NC(=O)O[C@@H]3C[C@H]3CCCCCc3nc4ccc(OC)cc4nc3O2)[C@@H]1C(=O)N[C@]1(C(=O)NS(=O)(=O)C2CC2)C[C@H]1CC | 0.563 | 272 |  | Vd [2]: 3.1 L/kg; bioavailability [3]: 100%; half-life [4]: 5 h; logD [5]: 4.6; clearance [6]: 11.2 mL/min/kg; concentration at 6 h [7]: 30.2 µM
12 | COc1ccc2nc3c(nc2c1)O[C@H]1CN(C(=O)[C@H](C(C)(C)C)NC(=O)O[C@@H]2C[C@H]2CCCCC3)[C@H](C(=O)N[C@]2(C(=O)NS(=O)(=O)C3(C)CC3)C[C@H]2C(F)F)[C@@H]1C | 0.1 | 20 |  | Vd [2]: 2.2 L/kg; bioavailability [3]: 100%; half-life [4]: 1.3 h; logD [5]: 3.5; clearance [6]: 35 mL/min/kg; concentration at 6 h [7]: 3.1 µM
13 | COc1ccc2nc3c(nc2c1)O[C@@H]1C[C@@H](C(=O)N[C@]2(C(=O)NS(=O)(=O)C4(C)CC4)C[C@H]2C(F)F)N(C1)C(=O)[C@H](C(C)(C)C)NC(=O)O[C@@H]1C[C@H]1CCCCC3 | 0.165 | 74 |  | 
14 | CC[C@@H]1[C@@H]2CN(C(=O)[C@H](C(C)(C)C)NC(=O)O[C@@H]3C[C@H]3CCCCCc3nc4ccc(OC)cc4nc3O2)[C@@H]1C(=O)N[C@]1(C(=O)NS(=O)(=O)C2(C)CC2)C[C@H]1C | 0.838 | 109 |  | 
15 | CC[C@@H]1[C@@H]2CN(C(=O)[C@H](C(C)(C)C)NC(=O)O[C@@H]3C[C@H]3CCCC3CC3c3nc4ccc(OC)cc4nc3O2)[C@@H]1C(=O)N[C@]1(C(=O)NS(=O)(=O)C2(C)CC2)C[C@H]1C(F)F (stereo in doubt; 46) | 9.4 |  |  | EC50 (Hepatitis C virus): 829 nM
16 | CC[C@@H]1[C@@H]2CN(C(=O)[C@H](C(C)(C)C)NC(=O)O[C@@H]3C[C@H]3CCCCC(F)c3nc4ccc(OC)cc4nc3O2)[C@@H]1C(=O)N[C@]1(C(=O)NS(=O)(=O)C2(C)CC2)C[C@H]1C(F)F (stereo partly specified) | 0.13 | 35 |  | 
17 | CCC[C@@H]1[C@@H]2CN(C(=O)[C@H](C(C)(C)C)NC(=O)O[C@@H]3C[C@H]3CCCCCc3nc4ccc(OC)cc4nc3O2)[C@@H]1C(=O)N[C@]1(C(=O)NS(=O)(=O)C2(C)CC2)C[C@H]1C(F)F | 0.12 | 36 |  | 
18 | COc1ccc2c(O[C@@H]3C[C@H]4C(=O)N[C@]5(C(=O)NS(=O)(=O)C6CC6)C[C@H]5/C=C\CCCCN(C)C(=O)[C@@H]4C3)cc(-c3nc(C(C)C)cs3)nc2c1C |  |  | 22 | 
19 | C=C[C@@H]1C[C@]1(NC(=O)[C@@H]1C[C@@H]2CN1C(=O)[C@H](C(C)(C)C)NC(=O)O[C@@H]1C[C@H]1CCCCCc1nc3ccc(OC)cc3nc1O2)C(=O)NS(=O)(=O)C1CC1 |  |  | 24 | 
20 | CC[C@@H]1[C@@H]2CN(C(=O)[C@H](C(C)(C)C)NC(=O)O[C@@H]3C[C@H]3CCCCCc3nc4ccc(OC)cc4nc3O2)[C@@H]1C(=O)N[C@]1(C(=O)NS(=O)(=O)C2(C)CC2)C[C@H]1C(F)F | 0.067 | 23 | 10 | Vd [2]: 1.7 L/kg; bioavailability [3]: 31%; half-life [4]: 1.4 h; logD [5]: 3.8; MRT [9]: 1.4 h; Drug metabolism [10]: Metabolite_Detected; clearance [6]: 21.7 mL/min/kg; concentration at 6 h [7]: 14 µM
21 | COc1ccc2nc3c(nc2c1)O[C@H]1CN(C(=O)[C@H](C(C)(C)C)NC(=O)O[C@@H]2C[C@H]2CCCCC3)[C@H](C(=O)N[C@]2(C(=O)NS(=O)(=O)C3(C)CC3)C[C@H]2C(F)F)[C@@H]1C1CC1 | 4.9 | 1160 |  | 
22 | COc1ccc2nc3c(nc2c1)O[C@H]1CN(C(=O)[C@H](C(C)(C)C)NC(=O)O[C@@H]2C[C@H]2CCCCC3)[C@H](C(=O)N[C@]2(C(=O)NS(=O)(=O)C3CC3)C[C@H]2CC(F)F)[C@@H]1C | 0.92 | 375 |  | 
23 | COc1ccc2nc3c(nc2c1)O[C@H]1CN(C(=O)[C@H](C(C)(C)C)NC(=O)O[C@@H]2C[C@H]2CCCCC3)[C@H](C(=O)N[C@]2(C(=O)NS(=O)(=O)C3CC3)C[C@H]2CCF)[C@@H]1C | 1.3 | 419 |  | 
24 | CC[C@@H]1[C@@H]2CN(C(=O)[C@H](C(C)(C)C)NC(=O)O[C@@H]3C[C@H]3CCCC3CC3c3nc4ccc(OC)cc4nc3O2)[C@@H]1C(=O)N[C@]1(C(=O)NS(=O)(=O)C2(C)CC2)C[C@H]1C(F)F (stereo in doubt; 45) | 1.7 |  |  | EC50 (Hepatitis C virus): 128 nM
25 | CC(C)(C)OC(=O)N[C@H]1CCCCC/C=C\[C@@H]2C[C@@]2(C(=O)NS(=O)(=O)C2CC2)NC(=O)[C@@H]2C[C@@H](OC(=O)N3Cc4cccc(F)c4C3)CN2C1=O |  |  | 202 | 
26 | CC[C@@H]1C[C@]1(NC(=O)[C@@H]1C[C@@H](Oc2cc(-c3csc(NC(C)C)n3)nc3c(Cl)c(OCCN4CCOCC4)ccc23)CN1C(=O)[C@@H](NC(=O)O[C@@H]1C[C@@H]2C[C@@H]2C1)C(C)(C)C)C(=O)O |  |  | 26 | 
27 | CC[C@@H]1[C@@H]2CN(C(=O)[C@H](C(C)(C)C)NC(=O)O[C@@H]3C[C@H]3CC/C=C/C(F)(F)c3nc4ccc(OC)cc4nc3O2)[C@@H]1C(=O)N[C@]1(C(=O)NS(=O)(=O)C2(C)CC2)C[C@H]1C(F)F | 0.053 | 5.3 |  | 
28 | C=C[C@@H]1C[C@]1(NC(=O)[C@@H]1C[C@@H](Oc2cc(-c3csc(NC(=O)C(C)C)n3)nc3c(Br)c(OC)ccc23)CN1C(=O)[C@@H](NC(=O)OC1CCCC1)C(C)(C)C)C(=O)O |  |  | 15 | 
